The source of these data is ChEMBL document CHEMBL3301562, “MMV Box screening against Plasmodium falciparum protein kinases and aminoacyl tRNA synthetases”.

Common to all, as to assay type: functional
In test [1] the target is T1, Cdk-related protein kinase 6 (Plasmodium falciparum, UniProt O77239).
T1 sequence (O77239 whole entry): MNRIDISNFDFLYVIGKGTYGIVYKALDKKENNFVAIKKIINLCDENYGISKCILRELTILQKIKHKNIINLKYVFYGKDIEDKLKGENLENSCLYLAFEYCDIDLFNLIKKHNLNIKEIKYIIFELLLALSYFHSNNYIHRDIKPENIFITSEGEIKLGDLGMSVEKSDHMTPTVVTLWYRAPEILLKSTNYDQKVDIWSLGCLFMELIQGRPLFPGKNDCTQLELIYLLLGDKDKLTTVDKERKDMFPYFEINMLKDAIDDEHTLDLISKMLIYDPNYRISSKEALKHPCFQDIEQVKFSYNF
In words: Final concentrations were 1.5 uM ATP, 5 mM MnCl2, and 15 ug/ml PK6 in a buffer of 100 mM Tris-HCl (pH 7.5). 50 ug/mL MBP was provided as the substrate; 10 uM staurosporine was used as a control inhibitor. Incubation time was 3 hours and 40 minutes.The catalytic activity of each kinase was considered proportional to ATP consumed, as determined from measurements of residual [ATP] with the luciferase-based reagent Kinase-Glo (Promega) following incubation. Luminescence (proportional to residual [ATP]) was measured on the plate readers FLx800 (BioTek Instruments, Winooski, VT, USA) and MicroBeta2.

The target in test [2] is T2, Putative uncharacterized protein pk7 (Plasmodium falciparum, UniProt O96214).
T2 sequence (O96214 whole entry): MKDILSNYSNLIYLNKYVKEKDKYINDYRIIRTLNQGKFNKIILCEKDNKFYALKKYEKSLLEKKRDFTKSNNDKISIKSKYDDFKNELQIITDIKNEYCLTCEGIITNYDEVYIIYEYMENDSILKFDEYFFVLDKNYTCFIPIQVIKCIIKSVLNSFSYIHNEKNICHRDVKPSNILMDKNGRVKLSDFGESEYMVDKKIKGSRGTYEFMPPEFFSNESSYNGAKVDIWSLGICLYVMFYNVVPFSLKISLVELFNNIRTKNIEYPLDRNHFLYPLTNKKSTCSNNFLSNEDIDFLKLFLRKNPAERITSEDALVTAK
In words: Final concentrations were 1 uM ATP, 2 mM DTT, 20 mM MgCl2, 2 mM MnCl2, 0.01% BSA, and 6 ug/ml PK7, in a buffer of 20 mM Tris-HCl (pH 7.5). The enzyme itself was the only substrate present (since autophosphorylation occurs); 100 uM 1NA-PP1 was used as a control inhibitor. Incubation time was 3 hours.

Test [3] concerns the target T3, Mitogen-activated protein kinase (Plasmodium falciparum, UniProt Q25917).
T3 sequence (Q25917 whole entry): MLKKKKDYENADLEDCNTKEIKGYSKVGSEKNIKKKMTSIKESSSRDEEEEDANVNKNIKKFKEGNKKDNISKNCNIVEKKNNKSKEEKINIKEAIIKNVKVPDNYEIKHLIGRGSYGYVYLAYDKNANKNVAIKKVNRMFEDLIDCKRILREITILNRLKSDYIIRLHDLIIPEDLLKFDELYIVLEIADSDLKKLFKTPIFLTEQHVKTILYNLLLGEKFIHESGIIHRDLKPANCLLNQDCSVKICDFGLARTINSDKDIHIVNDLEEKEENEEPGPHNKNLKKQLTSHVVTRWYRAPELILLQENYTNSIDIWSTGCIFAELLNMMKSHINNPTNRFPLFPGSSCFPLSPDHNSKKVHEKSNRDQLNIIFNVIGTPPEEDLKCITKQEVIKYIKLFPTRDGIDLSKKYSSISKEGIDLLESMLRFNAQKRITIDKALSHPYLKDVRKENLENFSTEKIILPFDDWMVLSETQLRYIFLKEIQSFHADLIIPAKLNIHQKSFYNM
The experiment in a line: Final concentrations were 1 uM ATP, 0.5 mM DTT, 1 mM MgCl2, 0.5 mg/mL BSA, and 10 ug/ml MAP2 in a buffer of 50 mM HEPES (pH 7.0). 0.5 mg/mL histone III-S served as the substrate (13); 100 uM AMP-PNP, an ATP analog, was used as a control inhibitor. Incubation time was 4 hours.

Test [4] concerns the target Calcium-dependent protein kinase 1 (Plasmodium falciparum, UniProt P62344). The experiment in a line: MMV: CDPK1 Protein kinase inhibition assay using recombinant PfCDPK1, syntide 2 peptide substrate, ATP and KinaseGlo to measure % inhibition at 1 uM MMV box compound. (In general: Kinase-Glo measures the ATP left after a reaction by luminescence.)
The target of another test is Lysine--tRNA ligase (Plasmodium falciparum (isolate 3D7), UniProt Q8IDJ8). In words: MMV: KRS recombinant Plasmodium falciparum Lysyl-tRNA-synthetase, assay with yeast tRNA, ATP, and lysine and 3 uM MMV malaria box compound, assay read out with kinase glo as % inhibition.
Test [5] deals with T4, Calcium-dependent protein kinase 4 (Plasmodium falciparum (isolate 3D7), UniProt Q8IBS5).
T4 sequence (Q8IBS5 whole entry): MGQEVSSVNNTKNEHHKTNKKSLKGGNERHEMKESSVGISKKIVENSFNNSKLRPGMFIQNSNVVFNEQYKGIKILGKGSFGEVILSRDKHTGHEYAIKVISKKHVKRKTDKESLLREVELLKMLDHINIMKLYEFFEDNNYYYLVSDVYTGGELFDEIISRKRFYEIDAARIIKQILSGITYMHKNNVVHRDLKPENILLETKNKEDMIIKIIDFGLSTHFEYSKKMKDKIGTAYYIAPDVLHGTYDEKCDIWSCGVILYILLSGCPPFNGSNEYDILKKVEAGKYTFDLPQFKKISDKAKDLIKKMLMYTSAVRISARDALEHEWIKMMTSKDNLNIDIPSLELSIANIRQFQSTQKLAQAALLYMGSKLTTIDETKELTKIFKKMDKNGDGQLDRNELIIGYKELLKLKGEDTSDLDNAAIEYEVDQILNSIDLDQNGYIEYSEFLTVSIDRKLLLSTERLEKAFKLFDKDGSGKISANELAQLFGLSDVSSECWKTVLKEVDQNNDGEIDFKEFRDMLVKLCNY
The experiment in a line: MMV: CDPK4 Protein kinase inhibition assay using recombinant PfCDPK4, syntide2 peptide substrate, ATP and KinaseGlo to measure % inhibition at 1 uM MMV box compound.

For a further test, the target named is T5, Proline--tRNA ligase (Plasmodium falciparum (isolate 3D7), UniProt Q8I5R7).
T5 sequence (Q8I5R7 whole entry): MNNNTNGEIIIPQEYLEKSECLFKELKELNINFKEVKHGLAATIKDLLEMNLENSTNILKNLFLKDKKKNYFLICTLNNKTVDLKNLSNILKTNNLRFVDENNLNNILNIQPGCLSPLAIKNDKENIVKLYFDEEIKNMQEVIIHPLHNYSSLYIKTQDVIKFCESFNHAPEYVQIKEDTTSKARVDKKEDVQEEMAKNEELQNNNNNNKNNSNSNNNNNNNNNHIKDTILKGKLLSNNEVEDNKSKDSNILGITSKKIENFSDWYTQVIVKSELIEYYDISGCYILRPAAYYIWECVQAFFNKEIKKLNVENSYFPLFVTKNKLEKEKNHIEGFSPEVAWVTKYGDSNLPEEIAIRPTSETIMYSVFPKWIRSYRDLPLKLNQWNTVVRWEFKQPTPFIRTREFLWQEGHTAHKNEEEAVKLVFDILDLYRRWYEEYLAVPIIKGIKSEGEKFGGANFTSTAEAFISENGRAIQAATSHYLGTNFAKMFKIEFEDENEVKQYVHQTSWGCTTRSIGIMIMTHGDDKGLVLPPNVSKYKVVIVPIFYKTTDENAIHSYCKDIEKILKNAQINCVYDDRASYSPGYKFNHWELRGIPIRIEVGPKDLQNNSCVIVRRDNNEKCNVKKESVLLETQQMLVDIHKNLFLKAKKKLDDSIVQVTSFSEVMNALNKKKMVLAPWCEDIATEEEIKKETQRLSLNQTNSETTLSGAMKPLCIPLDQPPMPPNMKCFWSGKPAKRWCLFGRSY
In words: MMV: ProRS recombinant Plasmodium falciparum Prolyl-tRNA-synthetase, assay with yeast tRNA, ATP, and proline and 3 uM MMV malaria box compound, assay read out with kinase glo as % inhibition.

One may read the IC50 as the midpoint of a concentration-inhibition curve.

Lysine--tRNA ligase, sequence (Q8IDJ8 whole entry): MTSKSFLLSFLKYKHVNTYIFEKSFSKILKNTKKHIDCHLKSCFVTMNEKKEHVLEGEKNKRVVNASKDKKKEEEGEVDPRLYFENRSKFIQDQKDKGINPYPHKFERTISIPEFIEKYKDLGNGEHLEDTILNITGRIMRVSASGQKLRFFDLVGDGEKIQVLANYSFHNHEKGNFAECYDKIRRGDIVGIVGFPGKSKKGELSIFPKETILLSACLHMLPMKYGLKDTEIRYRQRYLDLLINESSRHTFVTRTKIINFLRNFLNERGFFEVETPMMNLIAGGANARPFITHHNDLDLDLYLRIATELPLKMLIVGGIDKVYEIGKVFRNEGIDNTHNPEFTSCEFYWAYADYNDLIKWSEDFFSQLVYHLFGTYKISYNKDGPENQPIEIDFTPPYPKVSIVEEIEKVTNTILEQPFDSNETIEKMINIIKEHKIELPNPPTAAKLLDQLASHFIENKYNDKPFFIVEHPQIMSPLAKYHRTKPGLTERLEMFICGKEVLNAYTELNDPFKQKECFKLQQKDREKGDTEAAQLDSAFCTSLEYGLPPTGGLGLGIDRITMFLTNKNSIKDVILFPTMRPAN
Calcium-dependent protein kinase 1, sequence (P62344 whole entry): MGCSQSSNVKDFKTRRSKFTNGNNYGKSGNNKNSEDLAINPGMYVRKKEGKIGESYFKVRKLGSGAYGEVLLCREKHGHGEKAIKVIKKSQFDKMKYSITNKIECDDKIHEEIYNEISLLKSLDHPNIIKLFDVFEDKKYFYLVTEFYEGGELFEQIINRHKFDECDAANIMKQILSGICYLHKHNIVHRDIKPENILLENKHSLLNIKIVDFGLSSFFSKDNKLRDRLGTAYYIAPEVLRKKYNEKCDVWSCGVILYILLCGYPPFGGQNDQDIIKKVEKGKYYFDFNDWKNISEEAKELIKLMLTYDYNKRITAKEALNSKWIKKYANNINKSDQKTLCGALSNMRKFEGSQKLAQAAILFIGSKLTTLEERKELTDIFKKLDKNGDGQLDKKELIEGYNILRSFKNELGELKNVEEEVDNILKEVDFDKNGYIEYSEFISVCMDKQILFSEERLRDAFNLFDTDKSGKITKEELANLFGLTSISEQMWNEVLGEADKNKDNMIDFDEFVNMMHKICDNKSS

With `CCOc1cc(CNC(C)C(O)c2ccccc2)cc(Cl)c1OCC` (stereo not given), the IC50 in test [1] is more than 1000 nM; in test [2], more than 1000 nM; in test [3], more than 1000 nM; in test [4], more than 1000 nM; on Lysine--tRNA ligase it was more than 2500 nM; in test [5], more than 1000 nM. For the same molecule, the half-maximal inhibitory concentration (IC50) on Proline--tRNA ligase was more than 2500 nM.
Take `OC(CNCC1CCCO1)Cn1c2ccc(Cl)cc2c2cc(Cl)ccc21` (stereo not given): the IC50 is more than 1000 nM in test [1]; more than 1000 nM in test [2]; more than 1000 nM in test [3]; more than 1000 nM in test [4]; more than 2500 nM at Lysine--tRNA ligase; more than 1000 nM in test [5]. On Proline--tRNA ligase, the IC50 was more than 2500 nM.
Turning to `COc1cccc(C2(C)Nc3ccccc3-c3nc4ccccc4n32)c1` (stereo not given), the IC50 in test [1] is more than 1000 nM; in test [2] it was more than 1000 nM; in test [3], more than 1000 nM; in test [4], more than 1000 nM; at Lysine--tRNA ligase, more than 2500 nM; in test [5], more than 1000 nM. For the same molecule, the 50% inhibitory concentration (IC50) at Proline--tRNA ligase was more than 2500 nM.
Consider `CC(C)CNC(=O)c1c(N)n(CCc2ccccc2F)c2nc3ccccc3nc12`, for which the IC50 in test [1] is more than 1000 nM; in test [2], more than 1000 nM; in test [3], more than 1000 nM; in test [4] it was more than 1000 nM; at Lysine--tRNA ligase, more than 2500 nM; in test [5], more than 1000 nM. Also, the IC50 on Proline--tRNA ligase is more than 2500 nM.
As for `CC(C)(C)CC(C)(C)NCC(O)COc1ccc(Cl)cc1Cl` (stereo not given), the IC50 in test [1] was more than 1000 nM; in test [2] it was more than 1000 nM; in test [3] it was more than 1000 nM; in test [4], more than 1000 nM; on Lysine--tRNA ligase it was more than 2500 nM; in test [5], more than 1000 nM. In addition, the IC50 at Proline--tRNA ligase is more than 2500 nM.
Take `O=C(NC1CCN(Cc2ccccc2)CC1)c1cc(-c2ccncc2)nc2ccc(Cl)cc12`: the IC50 in test [1] was more than 1000 nM; in test [2], more than 1000 nM; in test [3], more than 1000 nM; in test [4] it was more than 1000 nM; on Lysine--tRNA ligase it was more than 2500 nM; in test [5], more than 1000 nM. For the same molecule, the IC50 at Proline--tRNA ligase is more than 2500 nM.
`CC(=O)Nc1nnc(SCc2c(C)cc(C(C)(C)C)cc2C)s1`: the concentration for half-maximal inhibition (IC50) was more than 1000 nM in test [1]; more than 1000 nM in test [2]; more than 1000 nM in test [3]; more than 1000 nM in test [4]; more than 2500 nM on Lysine--tRNA ligase; more than 1000 nM in test [5]. Besides, the IC50 at Proline--tRNA ligase was more than 2500 nM.
For `CCOc1ccc(C2N(C)c3ccccc3N2C)cc1`, the IC50 in test [1] was more than 1000 nM; in test [2] it was more than 1000 nM; in test [3], more than 1000 nM; in test [4], more than 1000 nM; at Lysine--tRNA ligase it was more than 2500 nM; in test [5], more than 1000 nM. On Proline--tRNA ligase, the IC50 was more than 2500 nM.
On to `CCN(Cc1ccccc1)C1CCN(Cc2cc(Br)ccc2O)CC1`, for which the IC50 was more than 1000 nM in test [1]; more than 1000 nM in test [2]; more than 1000 nM in test [3]; more than 1000 nM in test [4]; more than 2500 nM at Lysine--tRNA ligase; more than 1000 nM in test [5]. The IC50 on Proline--tRNA ligase was more than 2500 nM.
Take `Clc1cc(Br)ccc1-c1ccc(CNCC2CCNCC2)o1`: the IC50 is more than 1000 nM in test [1]; more than 1000 nM in test [2]; more than 1000 nM in test [3]; more than 1000 nM in test [4]; more than 2500 nM at Lysine--tRNA ligase; more than 1000 nM in test [5]. In addition, the concentration for half-maximal inhibition (IC50) on Proline--tRNA ligase was more than 2500 nM.
With `Oc1c2c(nc3cc(-c4ccccc4)nn13)CCCC2`, the IC50 is more than 1000 nM in test [1]; more than 1000 nM in test [2]; more than 1000 nM in test [3]; more than 1000 nM in test [4]; more than 2500 nM on Lysine--tRNA ligase; more than 1000 nM in test [5]. On Proline--tRNA ligase, the IC50 was more than 2500 nM.
Take `Cc1cc(N2CCN(C3CCCC3)CC2)n2c(nc3ccccc32)c1C#N`: the IC50 is more than 1000 nM in test [1]; more than 1000 nM in test [2]; more than 1000 nM in test [3]; more than 1000 nM in test [4]; more than 2500 nM on Lysine--tRNA ligase; more than 1000 nM in test [5]. On Proline--tRNA ligase, the IC50 was more than 2500 nM.
Turning to `CCCCOc1ccc(C(=O)Nc2cc(C)on2)cc1`, the IC50 was more than 1000 nM in test [1]; more than 1000 nM in test [2]; more than 1000 nM in test [3]; more than 1000 nM in test [4]; more than 2500 nM on Lysine--tRNA ligase; more than 1000 nM in test [5]. Besides, the 50% inhibitory concentration (IC50) at Proline--tRNA ligase is more than 2500 nM.
For `CCc1ccc(Nc2cc(C)nc3nc(C)nn23)cc1`, the concentration for half-maximal inhibition (IC50) in test [1] is more than 1000 nM; in test [2] it was more than 1000 nM; in test [3] it was more than 1000 nM; in test [4], more than 1000 nM; on Lysine--tRNA ligase it was more than 2500 nM; in test [5], more than 1000 nM. In addition, the IC50 on Proline--tRNA ligase is more than 2500 nM.
As to `CCN(CC)S(=O)(=O)c1ccc(-c2csc(Nc3ccc(C)c(C)c3)n2)cc1`, the IC50 was more than 1000 nM in test [1]; more than 1000 nM in test [2]; more than 1000 nM in test [3]; more than 1000 nM in test [4]; more than 2500 nM on Lysine--tRNA ligase; more than 1000 nM in test [5]. Also, the IC50 at Proline--tRNA ligase was more than 2500 nM.
